This is an account of results in ChEMBL document CHEMBL1201862, “PubChem BioAssay data set” (2004).

SMILES strings stand for the structures.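 Test compounds were applied to cells in 96-well plates for 48 hours at 5 doses. Here, GI50 denotes the concentration required for 50% inhibition of growth.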 The source made the active and inactive calls. Rule as the data show it: active = GI50 up to about 1.1 µM and inactive = higher.

Among the test systems are HOP-92; HT-29; OVCAR-5; HCT-116; RXF 393; DU-145; HOP-62; U-251; SK-MEL-5; HCT-15; SNB-19; KM12; SK-MEL-2; ACHN; SN12C; SK-MEL-28; SF-268; SF-539; K562; HL-60.
Test in all cases: NCI tumour cell line growth inhibition, 48 h

Turning to `O=C1CCC(NC(=O)c2ccccc2)C(=O)N1` (stereo not drawn), the GI50 in the test on HOP-92, with HT-29, with OVCAR-5, with HCT-116, with RXF 393 and in the test on DU-145 was > 100 µM (inactive) in each case. Moreover, the GI50 with HOP-62 is > 100 µM (inactive); in the test on U-251 it was > 100 µM (inactive); with SK-MEL-5 it was > 100 µM (inactive); with HCT-15, more than 100 µM; in the test with SNB-19 it was > 100 µM (inactive); in the test with KM12 it was > 100 µM (inactive). Also, the GI50 in the test on SK-MEL-2, with ACHN, with SN12C, with SK-MEL-28, with SF-268 and with SF-539 was > 100 µM (inactive) each time.

In the case of `COc1ccc2nc3c([N+](=O)[O-])ccc4c3c(c2c1)N=CN4CCCN(C)C`, the GI50 in the test on HOP-92 was 1.99 µM (inactive); with HT-29, 0.57 µM (active); in the test with OVCAR-5, 10.2 µM (inactive); in the test with HCT-116, 0.419 µM (active); with DU-145, 2.52 µM (inactive); in the test on HOP-62, 1.2 µM (inactive). Also, the GI50 is 1.65 µM (inactive) with U-251; 3.24 µM (inactive) in the test on SK-MEL-5; 0.53 µM in the test with HCT-15; 4.74 µM (inactive) in the test with SNB-19; 1.24 µM (inactive) in the test with KM12; 7.71 µM (inactive) in the test with SK-MEL-2. Further, the GI50 is 0.488 µM (active) in the test on K562; 0.743 µM (active) in the test on ACHN; 1.97 µM (inactive) in the test with SN12C; 10 µM (inactive) with SK-MEL-28; 2.77 µM (inactive) in the test with SF-268; 0.944 µM (active) with SF-539. The GI50 with HL-60 was 2.77 µM (inactive).

Consider `CCOC(=O)/C=C/c1nc(C#N)c(N)o1`, for which the GI50 was > 100 µM (inactive) in the test with HOP-92; > 100 µM (inactive) with HT-29; > 100 µM (inactive) with OVCAR-5; > 100 µM (inactive) in the test on HCT-116; 1.46 µM (inactive) with RXF 393; > 100 µM (inactive) in the test on DU-145. In addition, the GI50 in the test on HOP-62 was > 100 µM (inactive); with U-251, > 100 µM (inactive); in the test on SK-MEL-5 it was > 100 µM (inactive); with HCT-15 it was more than 100 µM; with SNB-19 it was > 100 µM (inactive); in the test on KM12, > 100 µM (inactive). In addition, the GI50 in the test on SK-MEL-2, in the test on K562, with ACHN, in the test on SN12C, with SK-MEL-28 and in the test with SF-268 was > 100 µM (inactive) each time. For the same compound, in the test on HL-60, the GI50 is > 100 µM (inactive).

With `O=C(O)COc1ccc(C(=O)/C(SS/C(C(=O)c2ccc(OCC(=O)O)c(Cl)c2Cl)=C2\C=C(c3ccc(Br)cc3)SS2)=C2/C=C(c3ccc(Br)cc3)SS2)c(Cl)c1Cl`, the GI50 in the test on HOP-92 is 3.5 µM (inactive); in the test with HT-29 it was 12.2 µM (inactive); with OVCAR-5 it was 24.8 µM (inactive); in the test on HCT-116, 3.9 µM (inactive); in the test on DU-145, 16.8 µM (inactive); in the test with HOP-62, 12.9 µM (inactive). The GI50 with U-251 was 3.47 µM (inactive); in the test with SK-MEL-5, 11.9 µM (inactive); in the test on HCT-15, 4.92 µM; in the test with SNB-19 it was 5.55 µM (inactive); in the test on KM12, 8.13 µM (inactive); in the test on SK-MEL-2 it was 6.61 µM (inactive). Further, the GI50 was 2.92 µM (inactive) with K562; 4.58 µM (inactive) in the test on ACHN; 6.32 µM (inactive) in the test with SN12C; 24.8 µM (inactive) in the test with SK-MEL-28; 2.82 µM (inactive) in the test on SF-268; 4.3 µM (inactive) in the test on SF-539. The GI50 with HL-60 is 1.55 µM (inactive).

For the compound `Cc1cc(C)n(C(=O)C(C)Sc2nnc(SC(C)C(=O)n3nc(C)cc3C)s2)n1` (stereo not drawn), the GI50 with HOP-92, in the test on HT-29, in the test with OVCAR-5, in the test on HCT-116, in the test on RXF 393 and with DU-145 was > 100 µM (inactive) each time. For the same compound, the GI50 with HOP-62 is > 100 µM (inactive); with U-251, > 100 µM (inactive); in the test on SK-MEL-5, > 100 µM (inactive); in the test on HCT-15 it was more than 100 µM; in the test with SNB-19, > 100 µM (inactive); in the test with KM12, > 100 µM (inactive). The GI50 with SK-MEL-2, in the test with K562, in the test with ACHN, with SK-MEL-28, in the test with SF-268 and in the test on HL-60 was > 100 µM (inactive) each time.

For the compound `O=C(NC1C(=O)NC(CCc2ccccc2)NC1=O)OCc1ccccc1` (stereo not drawn), the GI50 in the test with HOP-92, in the test with HT-29, in the test on OVCAR-5, in the test with HCT-116, in the test on RXF 393 and with DU-145 was > 100 µM (inactive) each time. The GI50 in the test on HOP-62 is > 100 µM (inactive); with U-251, > 100 µM (inactive); with SK-MEL-5 it was > 100 µM (inactive); with HCT-15 it was more than 100 µM; with SNB-19, > 100 µM (inactive); with KM12, > 100 µM (inactive). Further, the GI50 in the test on K562, in the test with ACHN, with SN12C, in the test on SK-MEL-28, in the test on SF-268 and in the test with SF-539 was > 100 µM (inactive) in each case. In the test on HL-60, the GI50 is > 100 µM (inactive).

Consider `C=C1CC(C)(COc2ccc3ccc(=O)oc3c2)OC1=O` (stereo not drawn), for which the GI50 is 1.12 µM (inactive) in the test on HOP-92; 1.57 µM (inactive) in the test on HT-29; 6.73 µM (inactive) with OVCAR-5; 1.14 µM (inactive) in the test on HCT-116; 3.22 µM (inactive) in the test on DU-145; 16 µM (inactive) in the test on HOP-62. In addition, the GI50 with U-251 is 13 µM (inactive); in the test with SK-MEL-5 it was 2.34 µM (inactive); in the test on HCT-15 it was 2.61 µM; in the test on SNB-19, 18.7 µM (inactive); in the test with KM12 it was 4.07 µM (inactive); in the test with SK-MEL-2, 1.31 µM (inactive). Besides, the GI50 with K562 is 0.581 µM (active); with ACHN it was 3.46 µM (inactive); in the test with SN12C it was 8.22 µM (inactive); in the test with SK-MEL-28 it was 2.94 µM (inactive); with SF-268 it was 10.9 µM (inactive); in the test on SF-539, 2.65 µM (inactive). Moreover, the GI50 in the test with HL-60 was 0.256 µM (active).

Regarding `CC(=O)OC(C)(C)CCC(=O)[C@](C)(O)[C@H]1[C@H](O)C[C@@]2(C)[C@@H]3CC=C4C(C)=C(OC5OC(CO)C(O)C(O)C5O)C(=O)C[C@@H]4[C@]3(C)C(=O)C[C@]12C` (stereo partly drawn), the GI50 with HOP-92, in the test on HT-29, in the test with OVCAR-5, with HCT-116, in the test on RXF 393 and with DU-145 was > 100 µM (inactive) in each case. Besides, the GI50 with HOP-62 is > 100 µM (inactive); in the test on U-251, > 100 µM (inactive); in the test on SK-MEL-5, > 100 µM (inactive); in the test on HCT-15, more than 100 µM; in the test with SNB-19, > 100 µM (inactive); in the test with KM12 it was > 100 µM (inactive). Further, the GI50 in the test on SK-MEL-2, with K562, in the test on ACHN, in the test on SN12C, in the test with SK-MEL-28 and in the test with SF-268 was > 100 µM (inactive) in each case. In addition, the GI50 with SF-539 is > 100 µM (inactive).

For the compound `C=C1C(=O)O[C@H]2C1C[C@H](O)[C@@]1(C)OC1CC[C@@]1(C)O[C@H]21` (stereo partly drawn), the GI50 was 20.6 µM (inactive) in the test on HOP-92; 32.5 µM (inactive) in the test on HT-29; 16.9 µM (inactive) in the test with OVCAR-5; 16.6 µM (inactive) with HCT-116; 22.5 µM (inactive) in the test with RXF 393; 34.5 µM (inactive) in the test on DU-145. Besides, the GI50 is 27.6 µM (inactive) with HOP-62; > 100 µM (inactive) with U-251; 20.4 µM (inactive) with SK-MEL-5; 18.7 µM with HCT-15; 25.1 µM (inactive) in the test on KM12; 26.5 µM (inactive) in the test on SK-MEL-2. Moreover, the GI50 was 4.28 µM (inactive) with K562; 18.1 µM (inactive) with ACHN; 17.4 µM (inactive) in the test on SN12C; 19.4 µM (inactive) with SK-MEL-28; 43.2 µM (inactive) with SF-268.

In the case of `O=C1CC(Sc2nc3ccc(I)cc3c(=O)n2Cc2ccccc2)C(=O)NN1` (stereo not drawn), the GI50 with HOP-92 was 17.7 µM (inactive); in the test with HT-29, 18.6 µM (inactive); with OVCAR-5, 17.9 µM (inactive); in the test on HCT-116, 15.7 µM (inactive); in the test on DU-145, 20 µM (inactive); in the test with HOP-62, 17.4 µM (inactive). Also, the GI50 was 15.9 µM (inactive) in the test on U-251; 16.2 µM (inactive) in the test on SK-MEL-5; 15.5 µM with HCT-15; 19.3 µM (inactive) with SNB-19; 17.2 µM (inactive) in the test on KM12; 17.1 µM (inactive) in the test on SK-MEL-2. The GI50 in the test on K562 is 11.6 µM (inactive); with ACHN, 16.6 µM (inactive); with SN12C, 14.5 µM (inactive); in the test on SK-MEL-28, 17.9 µM (inactive); with SF-268, 15.9 µM (inactive); in the test on SF-539, 18.2 µM (inactive). The GI50 with HL-60 is 20 µM (inactive).

As to `NS(=O)(=O)c1ccc(-n2c(-c3cccs3)nc3ccc(I)cc3c2=O)cc1`, the GI50 in the test with HOP-92 was 18.5 µM (inactive); in the test with HT-29, 31.7 µM (inactive); with OVCAR-5, 24.6 µM (inactive); in the test with HCT-116, 17.3 µM (inactive); with RXF 393 it was 28.2 µM (inactive); in the test on DU-145, 18.8 µM (inactive). Further, the GI50 with HOP-62 is 30.4 µM (inactive); in the test with U-251, 20 µM (inactive); in the test with SK-MEL-5, 23.7 µM (inactive); in the test on HCT-15 it was 20.9 µM; in the test with SNB-19, 40.4 µM (inactive); in the test with KM12, 24.1 µM (inactive). Besides, the GI50 in the test with ACHN is 21.4 µM (inactive); in the test with SN12C it was 30.3 µM (inactive); with SK-MEL-28, 17.3 µM (inactive); with SF-268 it was 28.2 µM (inactive); in the test on HL-60, 20.6 µM (inactive).
